This note sets out measurements from publication PMC6265484, “Homodimerization regulates an endothelial specific signature of the SOX18 transcription factor” (Nucleic Acids Research, 2018).

The assay addresses T1, SOX18 (GFP-SOX18 / SOX18-Cherry-myc homodimer) (Homo sapiens, UniProt P35713).
T1 construct: full-length human SOX18, synthetic gene; N-terminal GFP-tagged and C-terminal Cherry-cMyc-tagged copies co-expressed cell-free in Leishmania tarentolae extract, not purified; homodimer
T1 sequence (P35713 1-384): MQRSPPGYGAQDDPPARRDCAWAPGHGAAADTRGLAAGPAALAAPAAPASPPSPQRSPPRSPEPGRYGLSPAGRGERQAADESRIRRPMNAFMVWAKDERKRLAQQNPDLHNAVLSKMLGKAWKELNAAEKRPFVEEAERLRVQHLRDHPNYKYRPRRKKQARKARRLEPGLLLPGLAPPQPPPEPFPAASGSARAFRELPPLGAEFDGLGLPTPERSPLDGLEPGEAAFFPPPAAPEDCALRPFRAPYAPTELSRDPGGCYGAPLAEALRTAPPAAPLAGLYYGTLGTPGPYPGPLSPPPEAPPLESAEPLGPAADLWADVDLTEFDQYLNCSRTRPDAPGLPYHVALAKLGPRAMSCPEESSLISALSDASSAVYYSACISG
The assay is described as follows: AlphaScreen disruption of SOX18-SOX18 homodimer in cell-free lysate. The class given is biochemical. The settings on record: protein-protein interaction disruption; no IR5 DNA; buffer B (25 mM HEPES, 50 mM NaCl, 0.001% NP40, 0.001% casein); 1 h; 0.7% DMSO.

`O=C(O)c1c(O)cccc1CCc1ccc2ccccc2c1` [Sm4] had a half-inhibitory concentration (IC50) of about 3000 nM.

As usually defined, the IC50 is the concentration needed to halve the response being measured. Low values mean inhibition by little substance, high ones a need for much substance.
